Reference: the supplement of paper PMC4862054

Tests used:
Assay in all cases: normalised viability (% of control), CellTiter-Blue; higher = more viable cells (about 100 = DMSO control)
Conditions in all cases: incubation time: 72 h
[1] = test system: BT-474
How it was run: (§1)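 Compound dissolved in 5 µl medium was pre-loaded into 384-well plates, and breast cancer cell lines in 20 µl suspension were seeded on top and incubated 72 h. After adding 2.5 µl CellTiter-Blue reagent for 2 h at 37 °C, fluorescence was read at 560/590 nm. Plates were normalised to vehicle (100) and a positive kill control (0), with Z'-factor quality control. Each value is normalised viability at a single listed concentration from the series.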

[2] = test system: CAL-120
How it was run: as §1

[3] = test system: CAL-148
How it was run: as §1

[4] = test system: CAL-51
How it was run: as §1

[5] = test system: CAL-85-1
How it was run: as §1

[6] = test system: DU-4475
How it was run: as §1

[7] = test system: HCC1143
How it was run: as §1

[8] = test system: HCC1599
How it was run: as §1

[9] = test system: HCC1937
How it was run: as §1

[10] = test system: HDQ-P1
How it was run: as §1

[11] = test system: Hs578T
How it was run: as §1

[12] = test system: MDA-MB-436
How it was run: as §1

[13] = test system: MDA-MB-453
How it was run: as §1

[14] = test system: MFM-223
How it was run: as §1

[15] = test system: SK-BR-3
How it was run: as §1

COc1ccc(C2=N[C@@H](c3ccc(Cl)cc3)[C@@H](c3ccc(Cl)cc3)N2C(=O)N2CCNC(=O)C2)c(OC(C)C)c1 [Nutlin-3]
normalised viability [%]
Conditions | 3 nM | 10 nM | 30 nM | 100 nM | 1000 nM | 10000 nM
[1] | – | 120 | – | – | 114 | 90.3
[2] | – | 82.8 | – | – | 85.2 | 96.6
[3] | 86 | – | 89.8 | 95.6 | – | –
[4] | 101 | – | 98.6 | 97.5 | – | –
[5] | 84.5 | – | 78.5 | 90.4 | – | –
[6] | 85.7 | – | 90.3 | 87.4 | – | –
[7] | – | 77.6 | – | – | 82.8 | 82.9
[8] | – | 96.1 | – | – | 104 | 97.4
[9] | – | 81.3 | – | – | 98.7 | 113
[10] | 107 | – | 112 | 107 | – | –
[11] | – | 105 | – | – | 117 | 100
[12] | – | 108 | – | – | 82.3 | 110
[13] | 104 | – | 92 | 99.8 | – | –
[14] | – | 87.5 | – | – | 83.2 | 81.6
[15] | – | 103 | – | – | 98.1 | 101

O=c1[nH]c(=O)n([C@H]2C[C@H](O)[C@@H](CO)O2)cc1F [Floxuridine]
normalised viability [%]
Conditions | 3 nM | 10 nM | 30 nM | 100 nM | 1000 nM | 10000 nM
[1] | – | 108 | – | – | 103 | 94.8
[2] | – | 94.4 | – | – | 16.8 | 21.1
[3] | 97.6 | – | 54.4 | 52.8 | – | –
[4] | 108 | – | 64.4 | 46.6 | – | –
[5] | 90.4 | – | 68.8 | 62.3 | – | –
[6] | 107 | – | 107 | 69.5 | – | –
[7] | – | 97.5 | – | – | 91.1 | 61.6
[8] | – | 86.9 | – | – | 91.8 | 81.9
[9] | – | 78.3 | – | – | 76 | 42.1
[10] | 111 | – | 94.8 | 80.8 | – | –
[11] | – | 127 | – | – | 58.9 | 38.9
[12] | – | 88.9 | – | – | 62.5 | 44.2
[13] | 109 | – | 79 | 85.3 | – | –
[14] | – | 97.1 | – | – | 93.4 | 55.1
[15] | – | 94.5 | – | – | 44.9 | 24
